Assay results taken from ChEMBL document CHEMBL1151449, “In vitro activity of DC-159a, a new broad-spectrum fluoroquinolone, compared with that of other agents against drug-susceptible and -resistant pneumococci” (2008).
In brackets after ≈: the same amount, converted by molar mass.

Assays:
Type in all cases: functional
Streptococcus pneumoniae [1] = test: Antibacterial activity against Streptococcus pneumoniae HMC 1060 harboring S81F mutation in quinolone-resistant determining regions of GyrA gene, S79F, K137N mutation in QRDR of ParC gene and I460V mutation in QRDR of ParE gene by agar dilution method
Streptococcus pneumoniae [2] = test: Antibacterial activity against Streptococcus pneumoniae HMC 1066 harboring S81F mutation in quinolone-resistant determining regions of GyrA gene, S79F mutation in QRDR of ParC gene and I460V mutation in QRDR of ParE gene by agar dilution method
Streptococcus pneumoniae [3] = test: Antibacterial activity against Streptococcus pneumoniae HMC 1070 harboring S81F mutation in quinolone-resistant determining regions of GyrA gene, D83N mutation in QRDR of ParC gene and I460V mutation in QRDR of ParE gene by agar dilution method
Streptococcus pneumoniae [4] = test: Antibacterial activity against Streptococcus pneumoniae HMC 1147 harboring S81F mutation in quinolone-resistant determining regions of GyrA gene, S79F mutation in QRDR of ParC gene and I460V mutation in QRDR of ParE gene showing efflux to gemifloxacin by agar dilution method
Streptococcus pneumoniae [5] = test: Antibacterial activity against Streptococcus pneumoniae HMC 1059 harboring S81F mutation in quinolone-resistant determining regions of GyrA gene, S79F, K137N mutation in QRDR of ParC gene and I460N mutation in QRDR of ParE gene by agar dilution method
Streptococcus pneumoniae [6] = test: Antibacterial activity against Streptococcus pneumoniae HMC 1071 harboring S81F mutation in quinolone-resistant determining regions of GyrA gene and S79F, K137N mutation in QRDR of ParC gene by agar dilution method
Streptococcus pneumoniae [7] = test: Antibacterial activity against Streptococcus pneumoniae HMC 1072 harboring S81F mutation in quinolone-resistant determining regions of GyrA gene, S79Y mutation in QRDR of ParC gene and I460V mutation in QRDR of ParE gene by agar dilution method
Streptococcus pneumoniae [8] = test: Antibacterial activity against Streptococcus pneumoniae HMC 1074 harboring S81F mutation in quinolone-resistant determining regions of GyrA gene, S79F mutation in QRDR of ParC gene and I460V mutation in QRDR of ParE gene by agar dilution method
Streptococcus pneumoniae [9] = test: Antibacterial activity against Streptococcus pneumoniae HMC 1077 harboring S81Y and S79F mutation in quinolone-resistant determining regions of GyrA and ParC genes respectively by agar dilution method
Streptococcus pneumoniae [10] = test: Antibacterial activity against Streptococcus pneumoniae HMC 1078 harboring S81F mutation in quinolone-resistant determining regions of GyrA gene, S79F mutation in QRDR of ParC gene and I460V mutation in QRDR of ParE gene by agar dilution method
Streptococcus pneumoniae [11] = test: Antibacterial activity against penicillin-resistant and quinolone-susceptible Streptococcus pneumoniae HMC 228 expressing ermB by broth microdilution method
Streptococcus pneumoniae [12] = test: Antibacterial activity against penicillin- and quinolone-susceptible Streptococcus pneumoniae HMC 5055 expressing mefA after 50 passages by broth microdilution method
Streptococcus pneumoniae [13] = test: Antibacterial activity against quinolone-susceptible and penicillin-intermediate Streptococcus pneumoniae HMC 5048 expressing mefA after 50 passages by broth microdilution method
Streptococcus pneumoniae [14] = test: Antibacterial activity against Streptococcus pneumoniae HMC 3041 after 50 passages by broth microdilution method
Streptococcus pneumoniae [15] = test: Antibacterial activity against penicillin-, macrolide-susceptible and quinolone-resistant Streptococcus pneumoniae HMC 1074 harboring S81F mutation in quinolone-resistant determining regions of GyrA gene, S79F mutation in QRDR of ParC gene and I460V mutation in QRDR of ParE gene after 50 passages by broth microdilution method
Streptococcus pneumoniae [16] = test: (§1) Antibacterial activity against macrolide-, quinolone-susceptible and penicillin-intermediate Streptococcus pneumoniae HMC 99 harboring S81Y and S79Y mutation in quinolone-resistant determining regions of GyrA and ParC genes respectively after 41 passages with moxifloxacin measured after 10 daily antibiotic-free subculturing by multi-step resistance selection technique
Streptococcus pneumoniae [17] = test: as §1, with “100” for “99”, “42” for “41”, “levofloxacin” for “moxifloxacin”
Streptococcus pneumoniae [18] = test: (§2) Antibacterial activity against penicillin-resistant and quinolone-susceptible Streptococcus pneumoniae HMC 228 expressing ermB and harboring S81F mutation in quinolone-resistant determining regions of GyrA gene, D83N mutation in QRDR of ParC gene and I460V mutation in QRDR of ParE gene after 28 passages with DC-159a measured after 10 daily antibiotic-free subculturing by multi-step resistance selection technique
Streptococcus pneumoniae [19] = test: as §2, with “gene, S79Y” for “gene, D83N”, “after 36” for “after 28”, “with moxifloxacin” for “with DC-159a”
Streptococcus pneumoniae [20] = test: Antibacterial activity against penicillin-resistant Streptococcus pneumoniae […] by agar dilution method
Streptococcus pneumoniae [21] = test: Antibacterial activity against azithromycin-susceptible Streptococcus pneumoniae ATCC 49619 by agar dilution method
Streptococcus pneumoniae [22] = test: Antibacterial activity against azithromycin-resistant Streptococcus pneumoniae […] by agar dilution method
Streptococcus pneumoniae [23] = test: Antibacterial activity against quinolone-resistant Streptococcus pneumoniae […] by agar dilution method
Streptococcus pneumoniae [24] = test: Antibacterial activity against Streptococcus pneumoniae HMC 1139 harboring S81F mutation in quinolone-resistant determining regions of GyrA gene, S79F, K137N mutation in QRDR of ParC gene and I460V mutation in QRDR of ParE gene by agar dilution method
Streptococcus pneumoniae [25] = test: Antibacterial activity against Streptococcus pneumoniae HMC 2536 harboring S81Y mutation in quinolone-resistant determining regions of GyrA gene, S79F, K137N mutation in QRDR of ParC gene and I460V mutation in QRDR of ParE gene by agar dilution method
Streptococcus pneumoniae [26] = test: Antibacterial activity against Streptococcus pneumoniae HMC 1062 harboring S81F mutation in quinolone-resistant determining regions of GyrA gene, S79F mutation in QRDR of ParC gene and I460V mutation in QRDR of ParE gene by agar dilution method
Streptococcus pneumoniae [27] = test: Antibacterial activity against Streptococcus pneumoniae HMC 1068 harboring E85K mutation in quinolone-resistant determining regions of GyrA gene, S79Y, K137N mutation in QRDR of ParC gene and I460V mutation in QRDR of ParE gene showing efflux to ciprofloxacin, levofloxacin by agar dilution method
Streptococcus pneumoniae [28] = test: Antibacterial activity against penicillin-, macrolide- and quinolone-susceptible Streptococcus pneumoniae HMC 63 by broth microdilution method
Streptococcus pneumoniae [29] = test: Antibacterial activity against macrolide-, quinolone-susceptible and penicillin-intermediate Streptococcus pneumoniae HMC 100 by broth microdilution method
Streptococcus pneumoniae [30] = test: Antibacterial activity against quinolone-susceptible and penicillin-intermediate Streptococcus pneumoniae HMC 441 expressing ermB by broth microdilution method
Streptococcus pneumoniae [31] = test: as §2, with “gene, S79Y” for “gene, D83N”, “after 38” for “after 28”, “with gatifloxacin” for “with DC-159a”

| Structure (SMILES) | MIC (Streptococcus pneumoniae [1]) [µg/mL] | MIC (Streptococcus pneumoniae [2]) [µg/mL] | MIC (Streptococcus pneumoniae [3]) [µg/mL] | MIC (Streptococcus pneumoniae [4]) [µg/mL] | MIC (Streptococcus pneumoniae [5]) [µg/mL] | MIC (Streptococcus pneumoniae [6]) [µg/mL] | MIC (Streptococcus pneumoniae [7]) [µg/mL] | MIC (Streptococcus pneumoniae [8]) [µg/mL] | MIC (Streptococcus pneumoniae [9]) [µg/mL] | MIC (Streptococcus pneumoniae [10]) [µg/mL] | MIC (Streptococcus pneumoniae [11]) [µg/mL] | MIC (Streptococcus pneumoniae [12]) [µg/mL] | MIC (Streptococcus pneumoniae [13]) [µg/mL] | MIC (Streptococcus pneumoniae [14]) [µg/mL] | MIC (Streptococcus pneumoniae [15]) [µg/mL] | MIC (Streptococcus pneumoniae [16]) [µg/mL] | MIC (Streptococcus pneumoniae [17]) [µg/mL] | MIC (Streptococcus pneumoniae [18]) [µg/mL] | MIC (Streptococcus pneumoniae [19]) [µg/mL] | MIC50 (Streptococcus pneumoniae [20]) [µg/mL] | other results |
| --- | --- | --- | --- | --- | --- | --- | --- | --- | --- | --- | --- | --- | --- | --- | --- | --- | --- | --- | --- | --- | --- |
| COc1c(N2CC3(CC3)[C@](C)(N)C2)c(F)cc2c(=O)c(C(=O)O)cn([C@@H]3C[C@@H]3F)c12.O | 0.5 | 0.5 | 1 | 1 | 1 | 1 | 1 | 0.5 | 1 | 1 | 0.12 | 0.125 | 0.125 | 0.125 | 1 | 1 | 1 | 1 | 1 | 0.12 | MIC90 (Streptococcus pneumoniae [20]): 0.5 µg/mL; MIC50 (Streptococcus pneumoniae [21]): 0.12 µg/mL; MIC90 (Streptococcus pneumoniae [21]): 0.5 µg/mL; MIC50 (Streptococcus pneumoniae [22]): 0.12 µg/mL; MIC90 (Streptococcus pneumoniae [22]): 0.12 µg/mL; MIC50 (Streptococcus pneumoniae [23]): 1 µg/mL; MIC90 (Streptococcus pneumoniae [23]): 1 µg/mL; MIC (Streptococcus pneumoniae [24]): 1 µg/mL; MIC (Streptococcus pneumoniae [25]): 1 µg/mL; MIC (Streptococcus pneumoniae [26]): 1 µg/mL; MIC (Streptococcus pneumoniae [27]): 1 µg/mL; MIC (Streptococcus pneumoniae [28]): 0.12 µg/mL; MIC (Streptococcus pneumoniae [29]): 0.12 µg/mL; MIC (Streptococcus pneumoniae [30]): 0.12 µg/mL; MIC (Streptococcus pneumoniae [31]): 1 µg/mL |
| COc1c(N2CCNC(C)C2)c(F)cc2c(=O)c(C(=O)O)cn(C3CC3)c12 (stereo not given) [GATIFLOXACIN] | 4 (≈ 10.7 µM) | 4 (≈ 10.7 µM) | 4 (≈ 10.7 µM) | 8 (≈ 21.3 µM) | 8 (≈ 21.3 µM) | 8 (≈ 21.3 µM) | 8 (≈ 21.3 µM) | 4 (≈ 10.7 µM) | 8 (≈ 21.3 µM) | 8 (≈ 21.3 µM) | 0.5 (≈ 1.33 µM) | 0.5 (≈ 1.33 µM) | 0.5 (≈ 1.33 µM) | 0.5 (≈ 1.33 µM) | 8 (≈ 21.3 µM) | 16 (≈ 42.6 µM) | 8 (≈ 21.3 µM) | 4 (≈ 10.7 µM) | 16 (≈ 42.6 µM) | 0.5 (≈ 1.33 µM) | MIC90 (Streptococcus pneumoniae [20]): 4 µg/mL (≈ 10.7 µM); MIC50 (Streptococcus pneumoniae [21]): 0.5 µg/mL (≈ 1.33 µM); MIC90 (Streptococcus pneumoniae [21]): 4 µg/mL (≈ 10.7 µM); MIC50 (Streptococcus pneumoniae [22]): 0.5 µg/mL (≈ 1.33 µM); MIC90 (Streptococcus pneumoniae [22]): 0.5 µg/mL (≈ 1.33 µM); MIC50 (Streptococcus pneumoniae [23]): 8 µg/mL (≈ 21.3 µM); MIC90 (Streptococcus pneumoniae [23]): 8 µg/mL (≈ 21.3 µM); MIC (Streptococcus pneumoniae [24]): 8 µg/mL (≈ 21.3 µM); MIC (Streptococcus pneumoniae [25]): 16 µg/mL (≈ 42.6 µM); MIC (Streptococcus pneumoniae [26]): 16 µg/mL (≈ 42.6 µM); MIC (Streptococcus pneumoniae [27]): 8 µg/mL (≈ 21.3 µM); MIC (Streptococcus pneumoniae [28]): 0.5 µg/mL (≈ 1.33 µM); MIC (Streptococcus pneumoniae [29]): 0.5 µg/mL (≈ 1.33 µM); MIC (Streptococcus pneumoniae [30]): 0.25 µg/mL (≈ 0.666 µM); MIC (Streptococcus pneumoniae [31]): 4 µg/mL (≈ 10.7 µM) |
